How the values were obtained:
[1] = system: recombinant β-galactoside-α2,6-sialyltransferase N1C0; assay: Glycosyl acceptor substrate specificity, monosaccharides and disaccharides; format: biochemical, Photobacterium leiognathi; settings: for % (nmol), relative activity toward acceptor substrate: sialyltransferase activity toward lactose set to 100; for transfer of sialic acid to acceptor substrate: 11 monosaccharides and disaccharides tested
Description: The purified enzyme prepared in Example 3 for JT-SHIZ-145-derived recombinant β-galactoside-α2,6-sialyltransferase N1C0 (SEQ ID NO: 4) was used to cause sialic acid transfer reaction in various monosaccharides/disaccharides as glycosyl acceptor substrates. The reaction was accomplished as described in J. Biochem., 120, 104-110 (1996). The monosaccharides used as glycosyl acceptor substrates were the following 8 types: methyl-α-D-galactopyranoside (Gal-α-OMe), methyl-β-D-galactopyranoside (Gal-β-OMe), methyl-α-D-glucopyranoside (Glc-α-OMe), methyl-β-D-glucopyranoside (Glc-β-OMe), methyl-α-D-mannopyranoside (Man-α-OMe), methyl-β-D-mannopyranoside (Man-β-OMe), N-acetylgalactosamine (GalNAc), and N-acetylglucosamine (GlcNAc). The disaccharides used were the following 3 types: lactose (Gal-β1,4-Glc), N-acetyllactosamine (Gal-β1,4-GlcNAc) and Gal-β1,3-GalNAc.
It should be noted that the relative activity toward each acceptor substrate was calculated assuming that the sialyltransferase activity toward lactose was set to 100.

[2] = system: recombinant β-galactoside-α2,6-sialyltransferase N1C0
Method: Using a crude enzyme solution, enzyme activity was measured in a reaction solution adjusted to contain calcium chloride and/or EDTA at a final concentration of 10 mM for calcium ion and 50 mM for EDTA.

[3] = system: recombinant β-galactoside-α2,6-sialyltransferase N1C0; assay: Effect of addition of various salts (complex ions, Na+/K+) on enzyme activity; format: biochemical, Photobacterium leiognathi; settings: anion concentration 0.1 M in Tris-HCl, 30° C.; compared to absence of addition
Method: Aqueous solutions were prepared for potassium nitrate (KNO3), sodium nitrate (NaNO3), potassium sulfate (K2SO4), sodium sulfate (Na2SO4), sodium dihydrogen phosphate (NaH2PO4), disodium hydrogen phosphate (Na2HPO4) and potassium phosphate (KH2PO4+K2HPO4 (abbreviated as KPB)). These aqueous solutions were each adjusted with Tris-HCl buffer to give an anion concentration of 0.1 M in the reaction solution at 30° C., and used for enzyme activity measurement.
It should be noted that enzyme activity in the reaction solution upon addition of each solution was evaluated as relative activity, assuming that the enzyme activity in the absence of addition (i.e., in Tris-HCl alone) was set to 1.

Molecule	% (nmol), relative activity toward acceptor substrate [1] [%]	transfer of sialic acid to acceptor substrate [1]	also measured
CO[C@@H]1O[C@H](CO)[C@@H](O)[C@H](O)[C@H]1O [Glc-β-OMe, methyl-β-D-glucopyranoside]	0	–	–
[Ca+2].[Cl-].[Cl-] [calcium ion, calcium chloride]	–	–	enzyme activity with calcium ion together with EDTA ([2]; 10 mM calcium ion and 50 mM EDTA): almost the same level as in the absence of calcium ion; enzyme activity in the presence of calcium ion ([2]; 10 mM calcium ion, compared to absence of calcium ion): remarkably increased
CO[C@H]1O[C@H](CO)[C@@H](O)[C@H](O)[C@H]1O [Glc-α-OMe, methyl-α-D-glucopyranoside]	0	–	–
OC[C@H]1O[C@@H](O[C@H]2[C@H](O)[C@@H](O)C(O)O[C@@H]2CO)[C@H](O)[C@@H](O)[C@H]1O (stereo partly drawn) [Gal-β1,4-Glc, lactose]	100	efficiently transferred	–
CC(=O)N[C@H]1C(O)O[C@H](CO)[C@H](O)[C@@H]1O (some centres unmarked) [GalNAc, N-acetylgalactosamine]	35	efficiently transferred	–
CO[C@H]1O[C@H](CO)[C@H](O)[C@H](O)[C@H]1O [Gal-α-OMe, methyl-α-D-galactopyranoside]	2	–	–
CC(=O)N[C@H]1C(O)O[C@H](CO)[C@@H](O[C@@H]2O[C@H](CO)[C@H](O)[C@H](O)[C@H]2O)[C@@H]1O (stereo partly drawn) [Gal-β1,4-GlcNAc, N-acetyllactosamine]	205	efficiently transferred	–
potassium phosphate (KH2PO4+K2HPO4 (abbreviated as KPB)) [potassium phosphate (KPB)]	–	–	effect of addition on enzyme activity [3]: maximum
CO[C@@H]1O[C@H](CO)[C@@H](O)[C@H](O)[C@@H]1O [Man-β-OMe, methyl-β-D-mannopyranoside]	0	–	–
CC(=O)N[C@H]1C(O)O[C@H](CO)[C@@H](O)[C@@H]1O (some centres unmarked) [GlcNAc, N-acetylglucosamine]	6	–	–
CO[C@@H]1O[C@H](CO)[C@H](O)[C@H](O)[C@H]1O [Gal-β-OMe, methyl-β-D-galactopyranoside]	59	efficiently transferred	–
CC(=O)N[C@H]1C(O)O[C@H](CO)[C@H](O)[C@@H]1O[C@@H]1O[C@H](CO)[C@H](O)[C@H](O)[C@H]1O (stereo partly drawn) [Gal-β1,3-GalNAc]	71	efficiently transferred	–
O=P([O-])([O-])O.[Na+].[Na+] [disodium hydrogen phosphate]	–	–	effect of addition on enzyme activity [3]: maximum
CO[C@H]1O[C@H](CO)[C@@H](O)[C@H](O)[C@@H]1O [Man-α-OMe, methyl-α-D-mannopyranoside]	0	–	–

From US8372617B2, “β-galactoside-α2,6-sialyltransferase, a gene encoding thereof, and a method for enhancing enzyme activity” (Japan Tobacco Inc., priority 2007, dated 2013)
